# Experimental data as given in patent US20040261139A1, “Androgen receptor knock-out transgenic animals” (priority 2001, published 2004).
# Like-named read-outs stand apart in the source and are kept apart here.
# Tests used:
# ZR-ARKO derived tumors = conditions: ovarectomized nude mice, estradiol and DHT pellets; expected result
# Method: (§1) After the initial in vitro characterization of the ARKO cells, mouse xenograft experiments are performed. The ARKO cells are subcutaneously injected into ovarectomized nude mice and the parental cell lines serve as xenograft controls. This experiment allows for the comparison of AR positive and AR negative breast carcinoma cells in animals that carry a functional AR gene without the potential confounding effects of using differently derived tumor cell lines. Tumor growth rate is compared in ARKO and parental cell line recipients in response to estradiol treatment, DHT treatment, or combined administration of estradiol and DHT. […] In addition to growth rate, tumors are examined histologically to determine the morphology and degree of vascularization between ARKO cell tumors and tumors generated by the parental cell lines under the different hormonal regimes.
# (§2) Female homozygous nude mice (obtained from the Jackson Laboratory) are ovarectomized. […] Ovarectomized mice are also implanted with 1.5 mg 90 day release progesterone hormonal tablets. Only the ovarian cancer based cell lines will be examined in progesterone treated animals. Animals will be subcutaneously injected with […] of the ARKO or parental cells at the time of hormonal implant Hormonal pellets will be replaced as required.
# ZR-75-1 tumors = conditions: ovarectomized nude mice, estradiol and DHT pellets; expected result
# Method: as §1, §2
# p21 (WAF1/CIP1) gene [1] = assay: Endogenous p21 (WAF1/CIP1) gene expression in PC-3 (AR2) cells stably transfected with AR; assay type: cell-based
# Method: (§3) A. MCF-7 cells were transfected using Superfect (Qiagen) with 2 μg of pSG5-AR with or without 4 μg of BRCA1, as indicated. Cells were cultured in the presence of 10 nM DHT or vehicle, as indicated. B. PC-3(AR2) cells were transfected under the same conditions as the MCF-7 cells in A. except that AR was not transfected. […] PC-3(AR2) cells transfected with BRCA1 were cultured in the presence of vehicle, 10 nM DHT, or 1 μM hydroxyflutamide (HF).
# (§4) The ability of AR and BRCA1 to regulate the endogenous p21 (WAF1/CIP1) gene in MCF-7 breast cancer cells was examined.
# p21 (WAF1/CIP1) gene [2] = conditions: 10 nM DHT, MCF-7 cells transfected with AR
# Method: as §3, §4
# AR = biological target: T1, AR (Homo sapiens, UniProt P10275); assay: AR transcriptional activity, MMTV-CAT reporter gene in DU145 cells transfected with AR with ARA70 or empty vector; assay type: cell-based; conditions: 10^-10 to 10^-6 M, presence or absence of ARA70
# T1 construct: expressed in transfected cells; host or cells: DU145
# T1 sequence (P10275 1-920): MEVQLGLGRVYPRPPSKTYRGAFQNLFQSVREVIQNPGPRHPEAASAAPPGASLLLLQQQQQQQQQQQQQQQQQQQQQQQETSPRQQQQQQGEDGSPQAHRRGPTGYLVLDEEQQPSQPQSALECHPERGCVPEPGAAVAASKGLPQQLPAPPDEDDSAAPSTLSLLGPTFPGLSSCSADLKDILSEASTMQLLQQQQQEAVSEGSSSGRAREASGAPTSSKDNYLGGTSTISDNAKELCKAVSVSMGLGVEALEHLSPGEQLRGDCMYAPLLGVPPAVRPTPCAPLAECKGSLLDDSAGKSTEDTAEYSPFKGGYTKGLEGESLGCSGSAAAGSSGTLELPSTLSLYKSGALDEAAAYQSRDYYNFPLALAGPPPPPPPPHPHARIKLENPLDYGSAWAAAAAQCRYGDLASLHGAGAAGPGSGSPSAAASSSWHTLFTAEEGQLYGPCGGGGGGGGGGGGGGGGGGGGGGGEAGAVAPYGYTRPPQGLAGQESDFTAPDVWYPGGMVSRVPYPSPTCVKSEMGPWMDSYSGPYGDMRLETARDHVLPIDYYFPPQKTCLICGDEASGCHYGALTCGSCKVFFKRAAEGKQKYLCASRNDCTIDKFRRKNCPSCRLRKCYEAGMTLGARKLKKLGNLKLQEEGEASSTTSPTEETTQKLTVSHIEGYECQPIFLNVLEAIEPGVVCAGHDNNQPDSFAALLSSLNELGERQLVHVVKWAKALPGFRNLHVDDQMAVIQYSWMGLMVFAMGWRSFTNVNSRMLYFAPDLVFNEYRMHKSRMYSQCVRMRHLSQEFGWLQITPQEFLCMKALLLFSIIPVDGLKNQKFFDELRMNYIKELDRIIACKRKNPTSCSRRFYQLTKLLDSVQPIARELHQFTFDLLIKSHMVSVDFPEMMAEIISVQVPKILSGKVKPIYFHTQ
# Source text: The DHT treatments were taken as the positive control. Data represents an average of three independent experiments.
# PSA is an androgen target gene that is not transcriptionally activated by the ER (58).
smiles,measurement,setting,value
"C[C@]12CCC(=O)C[C@@H]1CC[C@@H]1[C@@H]2CC[C@]2(C)[C@@H](O)CC[C@@H]12 [DHT, 5α-dihydrotestosterone]",estradiol induced proliferation of ZR-ARKO derived tumors in the presence of DHT,ZR-ARKO derived tumors,expected to continue estradiol induced proliferation
same,estradiol-mediated proliferation of ZR-75-1 tumors,ZR-75-1 tumors,expected to inhibit
same,endogenous p21 (WAF1/CIP1) gene expression,"p21 (WAF1/CIP1) gene [1]; 10 nM DHT, PC-3 (AR2) cells",confirmed
same,endogenous p21 (WAF1/CIP1) gene expression,p21 (WAF1/CIP1) gene [2],induced endogenous p21 (WAF1/CIP1) gene expression
"C[C@]12CC[C@@H]3c4ccc(O)cc4C[C@@H](CCCCCCCCC[S+]([O-])CCCC(F)(F)C(F)(F)F)[C@H]3[C@@H]1CC[C@@H]2O (stereo partly drawn) [ICI182, 780]",induction of AR mediated transcription,AR,unable to induce AR mediated transcription
CC(C)(O)C(=O)Nc1ccc([N+](=O)[O-])c(C(F)(F)F)c1 [hydroxyflutamide],effect on DHT induction of p21 (WAF1/CIP1),"p21 (WAF1/CIP1) gene [1]; 1 μM hydroxyflutamide, PC-3 (AR2) cells transfected with BRCA1",blocks the DHT induction
